The values that follow come from EP2605769B1, “BENZOQUINONE DERIVATIVES FOR THE TREATMENT OF MITCHONDRIAL EYE DISEASES” (Santhera Pharmaceuticals (Schweiz) AG, priority 2010, dated 2012).

Marks after values point to notes of the source that are not given here.

Data set [1] is described as follows: Cytotoxicity assay (WST-1). The conditions noted are these: human, hepg2 cells, Hep-G2 cells, 24 hours exposure, read-out: TC50. It counts as cell-based, human. The text has this:
This assay investigates cytotoxicity which is defined as the cell-killing property of a chemical compound, independent from the mechanisms of cell death. The HepG2 hepatoblastoma cell line is one of the most common human cell lines for hepatotoxicity studies. […] This assay measures metabolic activity of living cells using the WST-1 cell proliferation reagent (Roche Diagnostics). The tetrazolium salt WST-1 is cleaved to water soluble formazan by cellular enzymes. An expansion in the number of viable cells results in an increase in the overall activity of mitochondrial dehydrogenases in the sample. This augmentation in enzyme activity leads to an increase in the amount of formazan dye formed, which directly correlates to the number of metabolically active cells in the culture. The formazan dye produced by metabolically active cells is directly quantified in a scanning multiwell spectrophotometer by measuring the absorbance of the formazan dye solution between 420 and 480 nm. Healthy HepG2 cells, when maintained in culture, continuously divide and multiply over time. A toxic chemical, regardless of site and mechanism of action, will interfere with this process and result in the reduction of the growth rate reflected in the cell number.
Experimental Procedure: Hep-G2 cells are seeded into a 96-well microplate and maintained in culture for 24 hours. They are then exposed to the test compound over a range of eight concentrations. After 24 hours exposure, the cells are incubated in presence of reagent WST-1 for 30 min before measuring the absorbance of the formazan dye formed. Cytotoxicity is expressed as a concentration dependent reduction of the conversion formazan dye formation due to a decrease in cell proliferation as compared to untreated cells. The TC50 (Toxic Concentration 50%), is defined as the concentration of tested compound required to reduce the cellular viability by 50% relative to the control culture. The lower the TC50 value, the higher is the cytotoxic potential of the test compound. […]
(In general: Tetrazolium assays rely on reduction of a dye to a coloured formazan, in cell work by metabolically active cells.)

The next data set concerns C57BL/6J mice. The data set can be described thus: Mouse model of intravitreal rotenone injection, histopathological analyses of retinal degeneration, first study. It counts as in vivo. The note with it: ± SEM; for Gliosis: GFAP immunostaining RFU; for Gliosis / Retinal thickness: 7 days post-injection; for Glutamine-synthetase: GS immunostaining RFU; for Glutamine-synthetase / RGC number: 1 day post-injection. The text has this: This mouse model is used to assess the therapeutic potential of compounds in eye disorders characterized by mitochondrial dysfunction such as LHON, DOA, macular degeneration, retinopathy, and complex I deficiency. It is a widely accepted in vivo model based on single-eye intravitreal injection of the mitochondrial complex I inhibitor rotenone in the adult mouse. Intravitreal injection of rotenone induces neurotoxicity through mitochondrial complex I dysfunction in the retina which is the main molecular dysfunction […]. […] Histological analysis includes quantitative measurement of the retinal thickness (whole retina and individual layers), RGC apoptosis and cell death, oxidative stress, glutamine synthetase expression, and gliosis. The non-injected eye is used as a within subject, i.e. intraindividual, control. Male wild-type C57BL/6J mice (7 weeks old, about 25 g body weight) are individually housed in Makrolon type II cages with standard bedding and free access to food and water under a regular 12-hours light-dark cycle (8 a.m. to 8 p.m.). […] The injection is performed over a period of 2 min and the needle is kept in place for an additional 3 min, after which it is gently removed. Sterile surgical glue (Histoacryl, BRAUN/Aesculap AG, Germany) is used to seal the site of injection and a sterile antimicrobial ophtalmic ointment (Neosporin, GlaxoSmithKline, UK) is applied to the injected eye to avoid any infection. […] The eye balls are removed, retinas are dissected, fixed for an additional 2 h at 4°C, incubated in PB 0.1 M and 30% sucrose overnight, frozen in optimal cutting temperature compound (O.C.T., Tissue-Tek, Miles Laboratories, Elkhart, IN, USA), sliced at 14 µm, and collected onto glass slides for immunostaining. Immunostaining is performed accordingly to conventional method using multiple primary antibodies. Fluorescent-conjugated secondary antibodies and DAPI are used for visualization under a fluorescence microscope. All procedures are performed in accordance with the Swiss regulation and under a license approved by the "Kantonales Veterinäramt Basel-Land". Results: […] Table 5 In Table 5, the histological data are expressed as % of sham (DMSO) injected control ± SEM. […] IA 400 means a pretreatment with Compound IA at 400 mg/kg, similarily IA 2000 means a pretreatment with Compound IA at 2000 mg/kg. Statistical significance relative to vehicle + rotenone group is p ≤ 0.05 (*), p ≤ 0.01 (**). n is the number of retinas per group.

Where [2] appears, read: 400 mg/kg pretreatment 3 weeks + rotenone.
Where [3] appears, read: 2000 mg/kg pretreatment 3 weeks + rotenone.

Consider `COC1=C(OC)C(=O)C(CCCCCCCCCC(C)(C)O)=C(C)C1=O` [Compound IC], for which, in data set [1], the CC50 at 24 h amounted to 71.9 µM.
Turning to `COC1=C(OC)C(=O)C(CCCCCCCCCCO)=C(C)C1=O` [Compound IA, Idebenone], in the data set with C57BL/6J mice (400 mg/kg + rotenone), the Gliosis is listed as 112.7 ± 11.9 * (n=3) % of sham (DMSO) injected control and the Glutamine-synthetase was 98.5 ± 1.9 (n=5) % of sham (DMSO) injected control. For the same molecule, in the data set on C57BL/6J mice (setting [2]), the RGC number is listed as 94.6 ± 3.2 ** (n=3) % of sham (DMSO) injected control and the Retinal thickness was 84.3 ± 2.9 ** (n=3) % of sham (DMSO) injected control. Further, in the data set with C57BL/6J mice (2000 mg/kg + rotenone), the Gliosis was 134.7 ± 10.7* (n=3) % of sham (DMSO) injected control and the Glutamine-synthetase was 99 ± 2.9 * (n=6) % of sham (DMSO) injected control. Moreover, in the data set with C57BL/6J mice (setting [3]), the RGC number was 101.3 ± 11.3 (n=3) % of sham (DMSO) injected control and the Retinal thickness is 76.9 ± 10.1 (n=4) % of sham (DMSO) injected control.
